Data on 21 molecules can be found in EP4023291A1, “FAT METABOLISM PROMOTER” (Asahi Group Holdings, Ltd., priority 2019, dated 2021).

In one assay the target is T1, TRPA1 (Homo sapiens, UniProt O75762).
T1 construct: expressed in transfected cells; host or cells: HEK293T cells, transient transfection with Lipofectamine 2000
In words: Test 9: TRPA1 activity test, cells with forced expression of TRPA1. Conditions: for Δ RFU in cells with forced expression of TRPA1: maximum values, average ± standard deviation, concentration after adding per Table 7 (10.2-28.2 ppm); for Δ RFU in cells with forced expression of TRPA1 / Δ RFU in non-transformed cells: ratio of maximum ΔRFU values, concentration after adding per Table 7. The assay is classed as cell-based. Here is the method:
In the present test, first, human embryonic HEK293T cells were first suspended in DMEM medium to which penicillin-streptomycin (manufactured by Thermo Fisher Scientific, Inc.) and fetal bovine serum (manufactured by Sigma-Aldrich Co. LLC) were added to reach concentrations of 100 Unit/mL, 100 µg/mL, and 10%, respectively, seeded in a 96-well plate at a volume of 100 µL/well, and cultured under conditions of 5% CO2 and 37°C until a cell density reached 70 to 90%.
Thereafter, the DMEM medium in each well was completely removed, to which OptiMEM medium (manufactured by Thermo Fisher Scientific, Inc.) containing the gene transfer reagent Lipofectamine 2000 (manufactured by Thermo Fisher Scientific, Inc.) and a hTRPA1 gene expression plasmid was added at a volume of 50 µL/well. Then, culture was performed under conditions of 37°C and 5% CO2 for approximately 24 hours to transfer the TRPA1 gene into the HEK293T cells. The contents of Lipofectamine 2000 and the hTRPA1 gene expression plasmid per 50 µL of the OptiMEM medium were 0.3 µL and 400 ng, respectively. The TRPA1 gene can be confirmed with a DNA database such as GenBank.
When the density of the HEK293T cells transfected in the described manner (hereinafter, also referred to as "cells with forced expression of TRPA1") reached 90 to 100%, FLIPR Calcium 6 Assay Kit (manufactured by Molecular Devices, LLC.), a calcium-sensitive fluorescent dye, was added at a volume of 50 µL/well, and culture was performed under conditions of 37°C and 5% CO2 for 2 hours. Here, the expression of TRPA1 on cell membranes was confirmed by response to cinnamaldehyde (manufactured by Wako Pure Chemical Industries, Ltd.), which is a known TRPA1 ligand. DMSO was used for dilution of cinnamaldehyde, and the DMSO concentration in each well was set to 0.1% in view of cytotoxicity.
Ethyl caproate was added to HEPES buffer (10 mM HEPES, 130 mM NaCl, 5 mM KCl, 10 mM glucose, 2 mM CaCl2·2H2O, 1.2 mM MgCl2·6H2O, pH = 7.40), and thus a test solution of Example 9 containing ethyl caproate in a concentration of 255 ppm was obtained. For a negative control (N.C.), HEPES buffer was used as a test solution of Comparative Example 6. Measurement of fluorescence intensity for the cells with forced expression of TRPA1 was initiated, and, 20 seconds thereafter, 50-µL portions of each of the test solutions prepared were added to three wells. After the lapse of a predetermined period of time, the measurement of fluorescence intensity was completed, and ratios of fluorescence intensity at each time after addition of a test solution as the average of fluorescence intensity before addition of a test solution was assumed as 1 (hereinafter, also referred to as "RFU (relative fluorescence units)") were determined from measurements of fluorescence intensity. Further, change rates in RFU before and after addition of a test solution (hereinafter, also referred to as "ΔRFU") were determined at each time after addition of a test solution. Fluorescence intensity was measured by using a FlexStation 3 (manufactured by Molecular Devices, LLC.). The measurement of fluorescence intensity was performed at room temperature, and each test solution was used for adding to wells at room temperature, too.
(§1) In the present test, test solutions of Examples 13 to 28 and Comparative Examples 9 to 14 described later were used in place of the test solutions used in First Testing Method of Test 5. Except that, the amount of change in RFU before and after addition of each test solution (ΔRFU) was determined for cells with forced expression of TRPA1 and non-transformed cells with the same method as First Testing Method of Test 5.
The test solutions of Examples 13 to 28 and Comparative Examples 10 to 14 used in the present test were each obtained by adding a compound listed in Table 7 into HEPES buffer. […]

A further assay concerns non-transformed cells. In words: Test 9: TRPA1 activity test, non-transformed cells. Conditions: maximum values, average ± standard deviation; concentration after adding per Table 7 (10.2-28.2 ppm). It counts as cell-based, human. As to the method:
Also for HEK293T cells without transfer of the TRPA1 gene (hereinafter, also referred to as "non-transformed cells"), as a reference, 50 µL of the test solution of Example 9 and 50 µL of the test solution of Comparative Example 6 were added with the same method as performed for the cells with forced expression of TRPA1, and ΔRFU was determined.
as §1
The test solutions of Examples 13 to 28 and Comparative Examples 10 to 14 used in the present test were each obtained by adding a compound listed in Table 7 into HEPES buffer. The octanol/water partition coefficient (log Pow) of each compound listed in Table 7 was calculated with XlogP (Shanghai Institute of Organic Chemistry, Chinese Academy of Sciences, http://WWW.sio-ccbg.ac.cn/software/xlogp3/), which is software using the XlogP3 algorithm. Each test solution was added as 50-µL portions to wells, and the concentrations of the compounds were set to concentrations shown in Table 7. HEPES buffer was used as the test solution of Comparative Example 9 for a negative control (N.C.), and added as 50-µL portions to wells.
Table 7 and Figure 18 show average ± standard deviation of maximum values of ΔRFU. In the present test, SoftMax Pro Vr. 6 (manufactured by Molecular Devices, LLC.) and Excel (manufactured by Microsoft Corporation) were used for data analysis.

T1 sequence (O75762 whole entry): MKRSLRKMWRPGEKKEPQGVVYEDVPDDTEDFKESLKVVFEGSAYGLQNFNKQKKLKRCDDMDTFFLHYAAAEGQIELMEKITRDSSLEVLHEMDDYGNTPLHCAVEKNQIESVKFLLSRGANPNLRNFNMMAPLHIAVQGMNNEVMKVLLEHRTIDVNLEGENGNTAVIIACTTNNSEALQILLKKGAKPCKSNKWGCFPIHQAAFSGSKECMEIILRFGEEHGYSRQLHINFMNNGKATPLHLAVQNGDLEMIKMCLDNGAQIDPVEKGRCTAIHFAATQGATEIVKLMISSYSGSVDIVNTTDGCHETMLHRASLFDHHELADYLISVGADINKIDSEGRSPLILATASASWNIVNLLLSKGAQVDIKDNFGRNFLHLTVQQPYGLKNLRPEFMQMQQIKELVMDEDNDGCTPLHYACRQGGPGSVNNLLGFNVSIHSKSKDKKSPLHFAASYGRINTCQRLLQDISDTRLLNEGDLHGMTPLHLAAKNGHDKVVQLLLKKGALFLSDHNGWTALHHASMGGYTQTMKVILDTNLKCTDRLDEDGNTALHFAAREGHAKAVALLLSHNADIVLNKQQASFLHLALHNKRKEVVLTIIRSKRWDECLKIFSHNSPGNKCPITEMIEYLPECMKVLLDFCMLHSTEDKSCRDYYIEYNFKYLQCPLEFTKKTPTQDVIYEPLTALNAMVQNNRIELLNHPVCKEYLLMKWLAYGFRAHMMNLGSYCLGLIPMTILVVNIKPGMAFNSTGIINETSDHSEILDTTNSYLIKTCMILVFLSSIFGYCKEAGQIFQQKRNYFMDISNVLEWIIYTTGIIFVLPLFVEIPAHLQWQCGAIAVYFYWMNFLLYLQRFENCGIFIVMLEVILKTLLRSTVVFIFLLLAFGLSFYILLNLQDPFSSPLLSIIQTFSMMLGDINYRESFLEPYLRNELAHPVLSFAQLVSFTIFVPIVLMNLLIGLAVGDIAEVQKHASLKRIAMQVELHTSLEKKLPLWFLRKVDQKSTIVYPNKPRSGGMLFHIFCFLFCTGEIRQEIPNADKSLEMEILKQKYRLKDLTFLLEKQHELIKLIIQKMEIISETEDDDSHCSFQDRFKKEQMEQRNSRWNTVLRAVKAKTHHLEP

Consider `CCOC(C)=O` [Comparative Example 10, Ethyl acetate, reference compound], for which, on TRPA1, the “Δ RFU in cells with forced expression of TRPA1” value was found to be 0.2 ± 0.1 and the “Δ RFU in cells with forced expression of TRPA1 / Δ RFU in non-transformed cells” value is reported as 0.7. The “Δ RFU in non-transformed cells” value with non-transformed cells stood at 0.3 ± 0.0.

In the case of `CCCOC(C)=O` [Comparative Example 11, Propyl acetate, reference compound], at TRPA1, the “Δ RFU in cells with forced expression of TRPA1” value is recorded as 0.2 ± 0.0 and the “Δ RFU in cells with forced expression of TRPA1 / Δ RFU in non-transformed cells” value is recorded as 0.8. The “Δ RFU in non-transformed cells” value in the assay on non-transformed cells stood at 0.3 ± 0.0.

Turning to `CCOC(=O)CC` [Comparative Example 12, Ethyl propionate, reference compound], on TRPA1, the “Δ RFU in cells with forced expression of TRPA1” value was 0.3 ± 0.0 and the “Δ RFU in cells with forced expression of TRPA1 / Δ RFU in non-transformed cells” value is recorded as 0.9. Further, the “Δ RFU in non-transformed cells” value with non-transformed cells turned out to be 0.3 ± 0.1.

On to `CCCCCCCC(=O)OCCC(C)C` [Comparative Example 13, Isoamyl caprylate, reference compound], for which, on TRPA1, the “Δ RFU in cells with forced expression of TRPA1” value came out at 0.2 ± 0.1 and the “Δ RFU in cells with forced expression of TRPA1 / Δ RFU in non-transformed cells” value is 0.6. Moreover, the “Δ RFU in non-transformed cells” value with non-transformed cells is listed as 0.3 ± 0.0.

`CCCCCCCCCCCC(=O)OCC` [Comparative Example 14, Ethyl laurate, reference compound]: on TRPA1, the “Δ RFU in cells with forced expression of TRPA1” value is 0.2 ± 0.0 and the “Δ RFU in cells with forced expression of TRPA1 / Δ RFU in non-transformed cells” value stood at 0.8. Besides, the “Δ RFU in non-transformed cells” value in the assay with non-transformed cells amounted to 0.2 ± 0.0.

Take `CC(=O)OCCC(C)C` [Example 13, Isoamyl acetate]: at TRPA1, the “Δ RFU in cells with forced expression of TRPA1” value turned out to be 0.7 ± 0.0 and the “Δ RFU in cells with forced expression of TRPA1 / Δ RFU in non-transformed cells” value is listed as 3.4. In addition, the “Δ RFU in non-transformed cells” value with non-transformed cells came to 0.2 ± 0.0.

As to `CCCCCOC(C)=O` [Example 14, Pentyl acetate], at TRPA1, the “Δ RFU in cells with forced expression of TRPA1” value is on record as 0.8 ± 0.1 and the “Δ RFU in cells with forced expression of TRPA1 / Δ RFU in non-transformed cells” value is 12.1. Besides, the “Δ RFU in non-transformed cells” value in the assay on non-transformed cells is on record as 0.1 ± 0.0.

For the molecule `CCC(C)COC(C)=O` (stereo not drawn) [Example 15, 2-Methylbutyl acetate], on TRPA1, the “Δ RFU in cells with forced expression of TRPA1” value is 0.6 ± 0.0 and the “Δ RFU in cells with forced expression of TRPA1 / Δ RFU in non-transformed cells” value is on record as 2.9. In addition, the “Δ RFU in non-transformed cells” value in the assay on non-transformed cells is 0.2 ± 0.0.

Regarding `CCCCCCCOC(C)=O` [Example 16, Heptyl acetate], at TRPA1, the “Δ RFU in cells with forced expression of TRPA1” value is 3.5 ± 0.7 and the “Δ RFU in cells with forced expression of TRPA1 / Δ RFU in non-transformed cells” value amounted to 127.8. Further, the “Δ RFU in non-transformed cells” value in the assay with non-transformed cells was determined as 0.0 ± 0.0.

As for `CCC(=O)OCCC(C)C` [Example 17, Isoamyl propionate], on TRPA1, the “Δ RFU in cells with forced expression of TRPA1” value came out at 1.5 ± 0.5 and the “Δ RFU in cells with forced expression of TRPA1 / Δ RFU in non-transformed cells” value is 12.4. Also, the “Δ RFU in non-transformed cells” value in the assay on non-transformed cells is recorded as 0.1 ± 0.0.

On to `CCCC(=O)OCCC(C)C` [Example 18, Isoamyl butyrate], for which, at TRPA1, the “Δ RFU in cells with forced expression of TRPA1” value is on record as 2.0 ± 0.4 and the “Δ RFU in cells with forced expression of TRPA1 / Δ RFU in non-transformed cells” value worked out at 19.3. Moreover, the “Δ RFU in non-transformed cells” value with non-transformed cells came to 0.1 ± 0.0.

On to `CCCCC(=O)OCC` [Example 19, Ethyl valerate], for which, at TRPA1, the “Δ RFU in cells with forced expression of TRPA1” value is 0.6 ± 0.1 and the “Δ RFU in cells with forced expression of TRPA1 / Δ RFU in non-transformed cells” value stood at 5.6. For the same molecule, the “Δ RFU in non-transformed cells” value with non-transformed cells was determined as 0.1 ± 0.0.

With `CCOC(=O)CCC(C)C` [Example 20, Ethyl 4-methylvalerate], on TRPA1, the “Δ RFU in cells with forced expression of TRPA1” value is listed as 2.0 ± 0.1 and the “Δ RFU in cells with forced expression of TRPA1 / Δ RFU in non-transformed cells” value was 27.6. For the same molecule, the “Δ RFU in non-transformed cells” value in the assay with non-transformed cells came out at 0.1 ± 0.0.

Take `CCCCCC(=O)OC` [Example 21, Methyl caproate]: on TRPA1, the “Δ RFU in cells with forced expression of TRPA1” value amounted to 1.2 ± 0.2 and the “Δ RFU in cells with forced expression of TRPA1 / Δ RFU in non-transformed cells” value is reported as 5.4. In the assay on non-transformed cells, the “Δ RFU in non-transformed cells” value stood at 0.2 ± 0.0.

In the case of `CCCCCC(=O)OCC` [Example 22, Ethyl caproate], on TRPA1, the “Δ RFU in cells with forced expression of TRPA1” value worked out at 2.2 ± 0.8 and the “Δ RFU in cells with forced expression of TRPA1 / Δ RFU in non-transformed cells” value stood at 12.7. Also, in the assay with non-transformed cells, the “Δ RFU in non-transformed cells” value turned out to be 0.2 ± 0.0.

On to `CCCCCC(=O)OCCC` [Example 23, Propyl caproate], for which, on TRPA1, the “Δ RFU in cells with forced expression of TRPA1” value came to 2.7 ± 1.1 and the “Δ RFU in cells with forced expression of TRPA1 / Δ RFU in non-transformed cells” value is listed as 12.9. Besides, the “Δ RFU in non-transformed cells” value with non-transformed cells is 0.2 ± 0.0.

With `CCCCCC(=O)OCCCC` [Example 24, Butyl caproate], on TRPA1, the “Δ RFU in cells with forced expression of TRPA1” value came to 4.1 ± 0.3 and the “Δ RFU in cells with forced expression of TRPA1 / Δ RFU in non-transformed cells” value is reported as 29.1. For the same molecule, the “Δ RFU in non-transformed cells” value in the assay with non-transformed cells is listed as 0.1 ± 0.0.

Turning to `CCCCCC(=O)OCCC(C)C` [Example 25, Isoamyl caproate], on TRPA1, the “Δ RFU in cells with forced expression of TRPA1” value was 3.0 ± 0.2 and the “Δ RFU in cells with forced expression of TRPA1 / Δ RFU in non-transformed cells” value came to 16.2. For the same molecule, the “Δ RFU in non-transformed cells” value with non-transformed cells stood at 0.2 ± 0.0.

Consider `CCCCCOC(=O)CCCCC` [Example 26, Pentyl caproate], for which, on TRPA1, the “Δ RFU in cells with forced expression of TRPA1” value was found to be 3.5 ± 1.1 and the “Δ RFU in cells with forced expression of TRPA1 / Δ RFU in non-transformed cells” value worked out at 12.8. For the same molecule, the “Δ RFU in non-transformed cells” value in the assay on non-transformed cells is 0.3 ± 0.1.

As for `CCCCCCCC(=O)OC` [Example 27, Methyl caprylate], at TRPA1, the “Δ RFU in cells with forced expression of TRPA1” value is 0.7 ± 0.1 and the “Δ RFU in cells with forced expression of TRPA1 / Δ RFU in non-transformed cells” value was 8.3. Moreover, the “Δ RFU in non-transformed cells” value in the assay on non-transformed cells was 0.1 ± 0.0.

For the molecule `CCCCCCCC(=O)OCC` [Example 28, Ethyl caprylate], at TRPA1, the “Δ RFU in cells with forced expression of TRPA1” value was 2.3 ± 0.4 and the “Δ RFU in cells with forced expression of TRPA1 / Δ RFU in non-transformed cells” value stood at 19.0. Also, in the assay on non-transformed cells, the “Δ RFU in non-transformed cells” value is 0.1 ± 0.0.
